Experiments:
Assay type in all cases: cell-based
[1] = tested on: HepG2 and A549 cell lines; assay: Cell painting morphological manifold of compound-treated cancer cell lines (deep CNN); details: for clustering in manifold by phenotypic effect (FIG. 16H): previously unseen drugs versus previously seen drugs; for clustering in morphological embedding (FIGS. 18A, 18B): 48 hours incubation, held-out versus training compounds
Description: Immortalized cancer cell lines A549 and HepG2 were cultured in T150 flasks and harvested above 60% confluency. The cells were counted on a cell counter (Countess by ThermoFisher) the cell suspension was adjusted to 2000 cells per 50 μL well of a 384 well PDL coated Cell Carrier Ultra (Perkin Elmer) plates. The cells were incubated overnight in a 37 C 5% CO2 incubator and then dosed with our compound collection (at multiple concentrations in log space) in DMSO with a Labcyte Echo from Echo qualified PP2.0 plates. After dosing the cells were incubated for 48 hours in a 37 C 5% CO2 incubator. After the incubation period the plates were stained with Mito-tracker by removing the cell media, washing with PBS on a EL406 plate washer (Biotek), then adding diluted 1 mM stock concentration mitotracker dye in cell culture media to each well with a PRIME liquid handler (HighRes Biosciences). The plates were incubated for 30 minutes and then washed 1× with PBS. Formaldehyde was added to each well of each plate to fix the cells and incubated for 20 minutes and then washed 5× with PBS. 0.1% Triton in PBS was added to the plates and incubated for 15 minutes then washed 2× with PBS and a stain mixture was added to all wells of the plates. The stain mixture included 5 μg/mL Hoechst, 100 μg/mL Concanavalin Alexa Fluor 488 conjugate, 3 uM SYTO 14 green fluorescent nucleic acid stain, 5 uL/mL Phalloidin/Alexa Fluor 568 conjugate, and 1.5 μg/mL Wheat Germ Agglutinin Alexa Fluor 555 conjugate in HBSS with BSA. The plates were incubated for 30 minutes with the stain solution and then washed 4× with PBS. The plates were then imaged in a Perkin Elmer Opera Phenix microscope with 16 images taken per well for all stain wavelengths.
This is a classification task where the goal is to identify which compound was used to perturb the cells in a single well. A single well is split into 16 different fields of views (FOV) which are captured by the microscope. The raw FOV images were preprocessed by correcting the illumination. The FOV images were further cropped into smaller squares so that we can fit into memory during the training of deep convolutional neural network (CNN) models. The Hoechst channel was used to detect the nucleus and then make a square around the detected nucleus.
A deep convolutional neural network was implemented to model the classification task. It was a 150-way classification task. The residual networks (ResNets) was used as the base feature extractor network with a fully connected linear network on top to perform the classification. Standard augmentations were implemented which improved the performance and removed experimental biases. For example, intensity based augmentations like gamma contrast are helpful in removing experimental biases (batch effects). For the mechanism of action identification, some compounds were omitted (˜30 compounds out of 150) during training. During inference, the unseen compounds were embedded closer to the expected mechanism of action cluster along with the seen compounds. FIG. 18A depicts example embeddings with similar drugs clustered more closely together. Here, lovastatin is a held out, unseen drug whereas atorvastatin is a drug used for training. […] In accordance with the methodology of Example 11 (e.g., FIGS. 16A-16D) described above, using embeddings/predictions, the candidate therapy is analyzed to predict its effect (e.g., effect in reverting disease phenotype back to healthy), and further validated in vitro.

knockout treated cells = assay: Microscopy tile embeddings (deep neural network, UMAP) of WT and KO lines with treatment; details: UMAP projector calculated on untreated WT/KO tile embeddings
Description: FIG. 16C depicts an example embedding showing phenotypic distinction between wild type and knockout cells. FIG. 16C was generated by projecting embeddings extracted from a deep neural network down to two dimensions using UMAP. The neural network model was trained in a supervised manner to discriminate between sick/healthy based on labels for WT and KO lines respectively. Each point in the figure corresponds to a tile of the original microscopy image. The points represented here are only for the WT and KO groups without treatment.
FIG. 16D depicts the use of embeddings for validating known effects of treatments (e.g., rapamycin and everolimus). The following figure uses the same UMAP projector calculated on tile embeddings of WT/KO with no treatment to project the embeddings representing treatment groups into the same space.

[2] = tested on: human cortical excitatory neurons; assay: Neuropaint high-content imaging of neurons exposed to small molecule compounds, ML embeddings; details: 3 concentrations; DAPI, LV-Syn-GFP, Actin, Mito-tracker stains
Description: DoxNGN2 iPSCs were plated at two different seeding densities (1k and 6k cells) and further differentiated into human cortical excitatory neurons. Different populations of neurons were exposed to 3 different concentrations of small molecules including rotenone, everolimus, loxapine, phorbol 12-myristate 13-acetate (PMA), staurosporine, rapamycin, BIO, and blebbistatin. Neurons were also treated with controls including phosphate buffered saline and dimethyl sulfoxide (DMSO). Following treatment, phenotypic assay data was captured from the treated neurons by performing high-content imaging (e.g., Neuropaint).

| SMILES | clustering in manifold by phenotypic effect (FIG. 16H) [1] | clustering in morphological embedding (FIGS. 18A, 18B) [1] | further results |
| --- | --- | --- | --- |
| COc1ccc(-c2ccc3c(N4CCOC[C@@H]4C)nc(N4CCOC[C@@H]4C)nc3n2)cc1CO [AZD 8055] | clustered proximity to previously seen drugs |  |  |
| COc1cc(C(=O)O)ccc1NC(=O)[C@@H]1N[C@@H](CC(C)(C)C)[C@](C#N)(c2ccc(Cl)cc2F)[C@H]1c1cccc(Cl)c1F [RG7388] | clustered proximity to previously seen drugs |  |  |
| CC(C)c1c(C(=O)Nc2ccccc2)c(-c2ccccc2)c(-c2ccc(F)cc2)n1CC[C@@H](O)C[C@@H](O)CC(=O)O [atorvastatin] |  | clustered close together |  |
| CO[C@H]1C[C@@H]2CC[C@@H](C)[C@@](O)(O2)C(=O)C(=O)N2CCCC[C@H]2C(=O)O[C@H]([C@H](C)C[C@@H]2CC[C@@H](OCCO)[C@H](OC)C2)CC(=O)[C@H](C)/C=C(\C)[C@@H](O)[C@@H](OC)C(=O)[C@H](C)C[C@H](C)/C=C/C=C/C=C/1C [everolimus] |  |  | shift of knockout cells in image embedding (FIG. 16D) (knockout treated cells): induces knockout treated cells to revert back towards a healthy phenotype |
| CC[C@H](C)C(=O)O[C@H]1C[C@@H](C)C=C2C=C[C@H](C)[C@H](CC[C@@H]3C[C@@H](O)CC(=O)O3)[C@H]21 [lovastatin] | clustered proximity to previously seen drugs | clustered close together |  |
| CN[C@@H]1C[C@H]2O[C@@](C)([C@@H]1OC)n1c3ccccc3c3c4c(c5c6ccccc6n2c5c31)C(=O)NC4 [staurosporine] |  |  | location of treated neurons in embeddings (FIG. 10C) [2]: located separate from neurons treated with other small compounds |

From US12505549B1, “Microscopy image analyses for disease modeling” (Insitro, Inc., priority 2020, dated 2025)
